The values that follow come from patent publication US20150368248A1, “2-SUBSTITUTED-6-BIARYLMETHYLAMINO-9-CYCLOPENTYL-9H-PURINE DERIVATIVES, USE THEREOF AS MEDICAMENTS, AND PHARMACEUTICAL COMPOSITIONS” (UNIVERZITA PALACKEHO V OLOMOUCI, priority 2013, published 2015).

One series deals with T1, CDK5/p35 (Homo sapiens, UniProt Q00535).
T1 construct: purchased ProQinase GmbH (Freiburg, Germany)
The series can be described thus: Kinase inhibition assay, recombinant kinase, [γ-33P]ATP. The conditions noted are these: read-out: Residual kinase activity, CDK5. It counts as biochemical. Here is the method:
(§1) CDK2/Cyclin E kinase was produced in Sf9 insect cells via baculoviral infection and purified on a NiNTA column (Qiagen). CDK5/p35, CDK7Cyclin H/MAT1 and CDK9/Cyclin T1 was purchased from ProQinase GmbH. The kinase reactions were assayed with 1 mg/mL histone H1 (for CDK2 and CDK5) or (YSPTSPS)2KK peptide (for CDK7 and CDK9) in the presence of 15/0.15/1.5/1.5 μM ATP (for CDK2/CDK5/CDK7CDK9), 0.05 μCi [γ-^33P]ATP and of the test compound in a final volume of 10 μL, all in a reaction buffer (60 mM HEPES-NaOH, pH 7.5, 3 mM MgCl2, 3 mM MnCl2, 3 μM Na-orthovanadate, 1.2 mM DTT, 2.5 μg/50 μl PEG20,000). The reactions were stopped by adding 5 μL of 3% aq H3PO4. Aliquots were spotted onto P-81 phosphocellulose (Whatman), washed 3× with 0.5% aq H3PO4 and finally air-dried.
(§2) CDK1/cyclin B and CDK2/cyclin E kinases were produced in Sf9 insect cells via baculoviral infection, while CDK5/p35, CDK7/cyclin H/MAT1, and CDK9/cyclin T1 were purchased from ProQinase (Freiburg, Germany) and assayed as described previously (35). The kinase reactions were assayed with 1 mg/ml histone H1 (for CDK2 and CDK5) or (YSPTSPS)2KK peptide (for CDK7 and CDK9) in the presence of 15/0.15/1.5/1.5 […] ATP (for CDK2/CDK5/CDK7CDK9), […] [γ-^33P]ATP and of the test compound in a final volume of […]. The reaction buffer contained 60 mM HEPES-NaOH, pH 7.5, 3 mM MgCl2, 3 mM MnCl2, 3 mM Na-orthovanadate, 1.2 mM DTT, 2.5 mg/50 ml PEG20.000. The reactions were stopped by adding […] of 3% H3PO4. Aliquots were spotted onto P-81 phosphocellulose (Whatman, GE Healthcare Biosciences, Pittsburgh, USA), washed 3 times with 0.5% H3PO4 and finally air-dried. Kinase inhibition was quantified using a FLA-7000 digital image analyzer (Fujifilm, Tokyo, Japan).

A further series has as its target T2, CDK7/cyclin H/MAT1 (Homo sapiens, UniProt P50613).
T2 construct: purchased ProQinase GmbH (Freiburg, Germany)
The description is as above. It is filed as biochemical. The conditions noted are these: read-out: Residual kinase activity, CDK7. Here is the method:
as §1, §2

The next series has as its target T3, CDK9/Cyclin T1 (Homo sapiens, UniProt P50750).
T3 construct: purchased ProQinase GmbH (Freiburg, Germany)
The series is described as above. The conditions noted are these: read-out: Residual kinase activity, CDK9. It counts as biochemical. Here is the method:
as §1, §2

Series [1] concerns caspase-3/7 activity in Hep3B cell line. As to the kind of experiment: One-step cellular caspase-3/7 activity assay. It counts as cell-based, human. The conditions noted are these: 24 hours, 0 nM = 1.00. Here is the method: (§3) Measurements of proapoptotic properties of new compounds were based on quantification of enzymatic activities of caspases, concretely caspases-3/7. Activity of cellular caspase-3/7 was measured according to Carrasco et al., 2003, BioTechniques, 34(5): 1064-67. Briefly, Hep3B and PLC/PRF/5 cells were incubated in the densities of 10000 cells/well in a 96-well plate overnight. Next day, the compounds in appropriate concentrations were added and cells were incubated for the 24 hours. After incubation, 3× caspase-3/7 assay buffer (150 mM HEPES pH 7.4, 450 mM NaCl, 150 mM KCl, 30 mM MgCl2, 1.2 mM EGTA, 1.5% Nonidet P40, 0.3% CHAPS, 30% sucrose, 30 mM DTT, 3 mM PMSF) with 150 μM Ac-DEVD-AMC as a substrate (Sigma-Aldrich) was added to the wells and plates were incubated at […]. The caspase-3/7 activity was measured after 6 hours using Fluoroskan Ascent microplate reader (Labsystems) at 346 nm/442 nm (excitation/emission).

Series [2] deals with caspase-3/7 activity in PLC/PRF/5 cell line. The series can be described thus: One-step cellular caspase-3/7 activity assay. It counts as cell-based, human. Particulars: 24 hours incubation, relative to 0 nM = 1.00. The method, then:
as §3

For series [3], the system named is p53-regulated transcription in Arn8 cells. The series can be described thus: p53-dependent transcriptional activity, β-galactosidase reporter. It is filed as cell-based. The conditions noted are these: 24 h incubation. Here is the method: Stronger anticancer activity of the compounds is enhanced by its positive impact on stability and activity of the tumour suppressor p53. To measure p53-dependent transcriptional activity, β-galactosidase activity was quantified in the melanoma cell line Arn8, which had been established using stable transfection of cells with a p53-responsive reporter construct pRGCAfoslacZ (Frebung et al., Cancer Res., 52, 1992-6976). Briefly, after 24 h incubation with the inhibitors the Arn8 cells were permeabilized with 0.3% Triton X-100 for 15 min and then 4-methylumbelliferon-β-D-galactopyranoside was added as a substrate to the final concentration of 80 μM. After 1 h the fluorescence of product 4-methylumbelliferon was measured at 355/460 nm (ex/em) with a Fluoroskan Ascent microplate reader (Labsystems). Data in Tab. 8 present that series of 2-substituted-6-biarylmethylamino-9-cyclopentyl-9H-purine derivatives show a dose-dependent activatory effect on p53-regulated transcription, with the maximum impact observed between 100 and 500 nM concentrations for most of prepared compounds (Tab. 8).

T2 sequence (P50613 whole entry): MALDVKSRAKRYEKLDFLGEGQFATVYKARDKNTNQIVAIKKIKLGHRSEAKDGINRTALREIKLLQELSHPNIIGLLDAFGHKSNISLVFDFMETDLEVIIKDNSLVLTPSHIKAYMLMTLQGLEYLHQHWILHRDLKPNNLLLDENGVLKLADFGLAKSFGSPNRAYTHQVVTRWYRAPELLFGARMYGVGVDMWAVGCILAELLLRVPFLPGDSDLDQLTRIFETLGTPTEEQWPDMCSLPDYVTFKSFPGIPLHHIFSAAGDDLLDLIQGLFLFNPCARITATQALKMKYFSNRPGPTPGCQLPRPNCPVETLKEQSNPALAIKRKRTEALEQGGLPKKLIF
T2 sequence (P51946 whole entry partner): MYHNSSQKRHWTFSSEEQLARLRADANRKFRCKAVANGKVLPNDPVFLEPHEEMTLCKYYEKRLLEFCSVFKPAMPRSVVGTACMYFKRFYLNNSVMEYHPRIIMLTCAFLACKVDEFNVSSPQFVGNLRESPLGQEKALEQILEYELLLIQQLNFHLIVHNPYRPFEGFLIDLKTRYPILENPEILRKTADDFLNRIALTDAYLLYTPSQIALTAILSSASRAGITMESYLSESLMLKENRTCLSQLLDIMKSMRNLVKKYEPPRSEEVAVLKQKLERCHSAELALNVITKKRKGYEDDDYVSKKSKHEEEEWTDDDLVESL
T2 sequence (P51948 whole entry partner): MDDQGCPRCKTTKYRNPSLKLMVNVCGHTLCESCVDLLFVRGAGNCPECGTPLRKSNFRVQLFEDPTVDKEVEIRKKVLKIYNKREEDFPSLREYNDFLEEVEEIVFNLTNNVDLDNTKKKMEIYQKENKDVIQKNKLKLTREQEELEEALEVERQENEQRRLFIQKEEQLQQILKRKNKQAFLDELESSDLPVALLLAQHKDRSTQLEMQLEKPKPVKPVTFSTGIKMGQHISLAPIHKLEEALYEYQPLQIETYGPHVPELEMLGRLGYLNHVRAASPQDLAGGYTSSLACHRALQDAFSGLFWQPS
T3 sequence (P50750 whole entry): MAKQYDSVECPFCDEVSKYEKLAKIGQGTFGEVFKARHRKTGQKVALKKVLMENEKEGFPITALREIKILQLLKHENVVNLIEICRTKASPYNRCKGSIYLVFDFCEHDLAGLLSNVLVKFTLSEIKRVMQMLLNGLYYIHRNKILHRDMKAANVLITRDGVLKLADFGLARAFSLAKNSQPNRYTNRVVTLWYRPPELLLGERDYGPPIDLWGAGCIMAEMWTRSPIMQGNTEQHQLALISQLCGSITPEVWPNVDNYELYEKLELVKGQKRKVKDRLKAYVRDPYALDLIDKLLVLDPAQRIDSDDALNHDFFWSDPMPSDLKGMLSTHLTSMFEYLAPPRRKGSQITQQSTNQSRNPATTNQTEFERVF
T3 sequence (O60563 whole entry partner): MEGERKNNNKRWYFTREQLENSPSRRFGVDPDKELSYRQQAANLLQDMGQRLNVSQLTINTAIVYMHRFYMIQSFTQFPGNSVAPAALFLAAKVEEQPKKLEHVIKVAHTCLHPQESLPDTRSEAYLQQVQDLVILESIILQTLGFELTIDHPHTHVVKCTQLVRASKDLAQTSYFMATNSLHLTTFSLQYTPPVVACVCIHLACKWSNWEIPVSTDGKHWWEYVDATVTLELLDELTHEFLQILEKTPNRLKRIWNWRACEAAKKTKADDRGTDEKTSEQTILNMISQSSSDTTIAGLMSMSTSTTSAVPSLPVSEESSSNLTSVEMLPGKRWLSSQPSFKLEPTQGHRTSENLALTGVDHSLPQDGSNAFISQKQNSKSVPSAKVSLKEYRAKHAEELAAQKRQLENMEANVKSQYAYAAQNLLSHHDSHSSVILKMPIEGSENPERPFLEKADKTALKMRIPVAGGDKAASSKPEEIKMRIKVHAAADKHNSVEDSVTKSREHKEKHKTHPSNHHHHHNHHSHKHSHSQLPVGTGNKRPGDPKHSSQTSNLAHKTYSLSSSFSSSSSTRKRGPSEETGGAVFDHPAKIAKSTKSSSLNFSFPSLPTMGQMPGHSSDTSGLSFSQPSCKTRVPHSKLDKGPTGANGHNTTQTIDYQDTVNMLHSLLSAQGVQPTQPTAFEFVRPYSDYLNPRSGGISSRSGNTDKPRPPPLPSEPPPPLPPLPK
T1 sequence (Q00535 whole entry): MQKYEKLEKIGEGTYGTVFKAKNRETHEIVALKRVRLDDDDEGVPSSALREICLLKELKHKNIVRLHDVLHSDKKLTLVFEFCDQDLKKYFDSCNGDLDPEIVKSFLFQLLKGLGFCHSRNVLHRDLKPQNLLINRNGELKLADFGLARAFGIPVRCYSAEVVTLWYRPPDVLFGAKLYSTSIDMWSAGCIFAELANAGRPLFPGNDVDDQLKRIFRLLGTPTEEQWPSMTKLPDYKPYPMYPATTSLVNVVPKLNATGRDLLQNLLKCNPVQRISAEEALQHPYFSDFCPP
T1 sequence (Q15078 whole entry partner): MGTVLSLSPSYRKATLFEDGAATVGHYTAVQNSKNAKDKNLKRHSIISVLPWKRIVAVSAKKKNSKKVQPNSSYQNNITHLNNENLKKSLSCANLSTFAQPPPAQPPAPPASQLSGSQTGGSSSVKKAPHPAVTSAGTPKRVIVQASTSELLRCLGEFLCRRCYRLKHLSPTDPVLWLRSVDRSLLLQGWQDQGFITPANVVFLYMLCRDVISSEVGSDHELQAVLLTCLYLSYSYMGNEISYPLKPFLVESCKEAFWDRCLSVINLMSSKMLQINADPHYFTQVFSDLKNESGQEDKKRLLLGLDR

On to `CC(C)(O)CNc1nc(NCc2ccc(-c3ccco3)nc2)c2ncn(C3CCCC3)c2n1` [BP117, 1-{9-cyclopentyl-6-[(6-furan-2-yl-pyridin-3-ylmethyl)-amino]-9H-purine-2-ylamino}-2-methyl-propan-2-ol], for which the melting point is 128 to 129 °C. Further, the remaining activity at 0.1 µM on CDK5/p35 (100 nM) is 76.7%. In addition, the remaining activity at 1 µM on CDK5/p35 (1000 nM) came out at 39.6%. Further, at CDK7/cyclin H/MAT1 (100 nM), the remaining activity at 0.1 µM was determined as 76.3%. Moreover, the remaining activity at 1 µM at CDK7/cyclin H/MAT1 (1000 nM) came to 68.3%. Further, at CDK9/Cyclin T1 (100 nM), the remaining activity at 0.1 µM came to 52.7%. The remaining activity at 1 µM at CDK9/Cyclin T1 (1000 nM) came to 23.2%. In series [1] (200 nM), the “Relative caspase-3/7 activity in Hep3B cell line” value is reported as 0.77. The “Relative caspase-3/7 activity in Hep3B cell line” value in series [1] (400 nM) worked out at 0.89. In series [1] (800 nM), the “Relative caspase-3/7 activity in Hep3B cell line” value came to 1.06. Further, the “Relative caspase-3/7 activity in Hep3B cell line” value in series [1] (1600 nM) was 2.00. Moreover, in series [2] (compound concentration 160 nM), the “Relative caspase-3/7 activity in PLC/PRF/5 cell line” value is given as 0.79. Moreover, the “Relative caspase-3/7 activity in PLC/PRF/5 cell line” value in series [2] (compound concentration 320 nM) stood at 1.17. For the same compound, in series [2] (compound concentration 640 nM), the “Relative caspase-3/7 activity in PLC/PRF/5 cell line” value is 2.60. Also, the “Relative caspase-3/7 activity in PLC/PRF/5 cell line” value in series [2] (compound concentration 1280 nM) amounted to 2.99. The “Concentration of maximum activation” value in series [3] is 950 nM.

By melting point is commonly meant the temperature, or range, at which the solid turns liquid.
